Experimental data reported in patent US20250230193A1, “CYCLIC COMPOUND HAVING SELECTIVE KRAS INHIBITORY EFFECT ON HRAS AND NRAS” (CHUGAI SEIYAKU KABUSHIKI KAISHA, priority 2022, published 2025).
*1 amine or outer side, *2 acyl side, *3 side chain or, on linkers, in order; H or OH if unused. Where a SMILES comes first, the peptide text is derived from it. Bridges are numbered along the chain shown (N, C = ends). [ ]: non-standard residue; d: D form. The star is where a group is joined. X6 = CC(C)(C)CCN([C@@H](Cc1ccc(C(F)(F)F)cc1)C(=O)[*:2])[*:1]; dhPhe(3-Cl,4-CF3) = N[C@H](CCc1ccc(C(F)(F)F)c(Cl)c1)C(=O)O; hPhe(3-Cl-4-CF3) = N[C@@H](CCc1ccc(C(F)(F)F)c(Cl)c1)C(=O)O; X3 = C=CCN([C@H](Cc1ccccc1)C(=O)[*:2])[*:1]; NMeGly(cPent) = CN[C@H](C(=O)O)C1CCCC1; NMeNle(5-ene) = C=CCC[C@H](NC)C(=O)O; NMeD = CN[C@@H](CC(=O)O)C(=O)O; NMeL = CN[C@@H](CC(C)C)C(=O)O; Morpholide = C1CN(*)CCO1; Ac5c = NC1(C(=O)O)CCCC1; Sar = CNCC(=O)O

Experiments:
[1] = target: GDP-bound NRAS wild-type protein (Homo sapiens, UniProt P01111); assay: Binding to NRAS by surface plasmon resonance (SPR), Single Cycle Kinetics; details: SPR
Sequence of GDP-bound NRAS wild-type protein (P01111 whole entry): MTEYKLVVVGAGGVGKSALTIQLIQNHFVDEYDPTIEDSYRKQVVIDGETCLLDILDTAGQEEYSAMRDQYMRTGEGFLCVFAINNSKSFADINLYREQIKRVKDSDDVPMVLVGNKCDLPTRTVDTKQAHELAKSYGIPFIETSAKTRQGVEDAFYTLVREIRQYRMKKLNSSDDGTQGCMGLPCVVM

[2] = target: GDP-bound HRAS wild-type protein (Homo sapiens, UniProt P01112); assay: Binding to HRAS by surface plasmon resonance (SPR), Single Cycle Kinetics; details: SPR
Sequence of GDP-bound HRAS wild-type protein (P01112 whole entry): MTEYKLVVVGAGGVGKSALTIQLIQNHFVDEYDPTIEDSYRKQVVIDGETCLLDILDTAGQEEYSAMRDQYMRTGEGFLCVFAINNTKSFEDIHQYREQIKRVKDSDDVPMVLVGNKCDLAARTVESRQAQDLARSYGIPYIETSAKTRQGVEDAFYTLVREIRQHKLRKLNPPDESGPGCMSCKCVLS

[3] = system: human lung cancer strain NCI-H441
[4] = KD ratio, GDP-bound NRAS wild-type vs GDP-bound KRAS wild-type
[5] = KD ratio, GDP-bound HRAS wild-type vs GDP-bound KRAS wild-type

Structure (SMILES) | IC50 [3] [nM] | NRAS/KRAS (ratio of KD value for NRAS to KD value for KRAS) [1, 4] | HRAS/KRAS (ratio of KD value for HRAS to KD value for KRAS) [2, 5] | further results
CC[C@H](C)[C@@H]1NC(=O)[C@H](CC(C)C)N(C)C(=O)C[C@@H](C(=O)N2CCOCC2)N(C)C(=O)[C@H](C2CCCC2)N(C)C(=O)C2(CCCC2)NC(=O)[C@@H]2CCCN2C(=O)[C@H](CCc2ccc(C(F)(F)F)c(Cl)c2)NC(=O)CN(C)C(=O)[C@H](Cc2ccc(C(F)(F)F)cc2)N(CCC(C)(C)C)C(=O)CN(C)C(=O)CN(C)C1=O [PP0127] ([NMeL]I[Sar][Sar][X6][Sar][hPhe(3-Cl-4-CF3)]P[Ac5c][NMeGly(cPent)][NMeD]-Morpholide; lactam N-11) | 25.3 | – | – | NRAS/KRAS (ratio of KD for GDP-bound NRAS wild-type to KD for KRAS) ([1]; KD ratio NRAS/KRAS): C (A compound having a KD ratio of 0.1 or more and less than 3 is denoted as C); HRAS/KRAS (ratio of KD for GDP-bound HRAS wild-type to KD for KRAS) ([2]; KD ratio HRAS/KRAS): C (A compound having a KD ratio of 0.1 or more and less than 3 is denoted as C)
C=CCC[C@H]1C(=O)N(CC=C)[C@H](Cc2ccccc2)C(=O)N(C)CC(=O)N[C@H](CCc2ccc(C(F)(F)F)c(Cl)c2)C(=O)N2CCC[C@H]2C(=O)NC2(CCCC2)C(=O)N(C)[C@@H](C2CCCC2)C(=O)N(C)[C@H](C(=O)N2CCOCC2)CC(=O)N(C)[C@@H](CC(C)C)C(=O)N[C@@H]([C@@H](C)CC)C(=O)N(C)CC(=O)N1C [PP0599] ([NMeL]I[Sar][NMeNle(5-ene)][X3][Sar][dhPhe(3-Cl,4-CF3)]P[Ac5c][NMeGly(cPent)][NMeD]-Morpholide; lactam N-11) | 2800 | – | – | NRAS/KRAS (ratio of KD value with respect to GDP-bound NRAS wild-type protein to KD value with respect to KRAS) ([1]; KD ratio NRAS/KRAS): C (A compound having a KD ratio of 0.1 or more and less than 3 is denoted as C); HRAS/KRAS (ratio of KD value with respect to GDP-bound HRAS wild-type protein to KD value with respect to KRAS) ([2]; KD ratio HRAS/KRAS): B (a compound having 3 or more and less than 10 is denoted as B)
CC[C@H](C)C1NC(=O)[C@H](CC(C)C)N(C)C(=O)C[C@@H](C(=O)N(C)C)N(C)C(=O)[C@H](C2CCCC2)N(C)C(=O)C2(CCCC2)NC(=O)C2CCCN2C(=O)[C@@H](CCc2ccc(C(F)(F)F)c(Cl)c2)NC(=O)CN(C)C(=O)[C@@H](Cc2ccc(C)cc2)N2CC/C=C\CCN(CC2=O)C(=O)CN(C)C1=O (stereo partly drawn) [PP0618] | 79.1 | – | – | NRAS/KRAS (ratio of KD value with respect to GDP-bound NRAS wild-type protein to KD value with respect to KRAS) ([1]; KD ratio NRAS/KRAS): C (A compound having a KD ratio of 0.1 or more and less than 3 is denoted as C); HRAS/KRAS (ratio of KD value with respect to GDP-bound HRAS wild-type protein to KD value with respect to KRAS) ([2]; KD ratio HRAS/KRAS): C (A compound having a KD ratio of 0.1 or more and less than 3 is denoted as C)
CC[C@H](C)[C@@H]1NC(=O)[C@H](CC(C)C)N(C)C(=O)C[C@@H](C(=O)N(C)C)N(C)C(=O)[C@H](C2CCCC2)N(C)C(=O)C2(CCCC2)NC(=O)C2CCCN2C(=O)[C@H](CCc2ccc(C(F)(F)F)c(Cl)c2)NC(=O)CN(C)C(=O)[C@H](Cc2ccc(C(F)(F)F)cc2)N2CC/C=C\COC[C@@H](C2=O)N(C)C(=O)CN(C)C1=O (stereo partly drawn) [PP0622] | 330 | – | – | NRAS/KRAS (ratio of KD value with respect to GDP-bound NRAS wild-type protein to KD value with respect to KRAS) ([1]; KD ratio NRAS/KRAS): B (a compound having 3 or more and less than 10 is denoted as B); HRAS/KRAS (ratio of KD value with respect to GDP-bound HRAS wild-type protein to KD value with respect to KRAS) ([2]; KD ratio HRAS/KRAS): B (a compound having 3 or more and less than 10 is denoted as B)
CC[C@H](C)[C@@H]1NC(=O)[C@H](CC(C)C)N(C)C(=O)C[C@@H](C)N(C)C(=O)[C@H](C2CCCC2)N(C)C(=O)C2(CCC2)NC(=O)[C@@H]2CCCN2C(=O)[C@H](CCc2cc(F)c(C(F)(F)F)c(F)c2)NC(=O)CN(C)C(=O)[C@H](Cc2ccc(C(F)(F)F)cc2)N2CC/C=C\C[C@@H](C2=O)N(C)C(=O)CN(C)C1=O [PP1099] | 68.1 | – | – | NRAS/KRAS (ratio of KD value with respect to NRAS to KD value with respect to KRAS) [1, 4]: B (a compound having 3 or more and less than 10 is denoted as B); HRAS/KRAS (ratio of KD value with respect to HRAS to KD value with respect to KRAS) [2, 5]: A (a compound having 10 or more and less than 20 is denoted as A)
CC[C@H](C)[C@@H]1NC(=O)[C@H](CC2CCCC2)N(C)C(=O)C[C@@H](C(=O)N(C)C)N(C)C(=O)[C@H](C2CCCC2)N(C)C(=O)C2(CCC2)NC(=O)[C@@H]2[C@@H](OCC(F)F)CCN2C(=O)[C@H](CCc2cc(F)c(C(F)(F)F)c(F)c2)NC(=O)CN(C)C(=O)[C@H](Cc2ccc(C)cc2)N2CC/C=C\C[C@H](C2=O)N(C)C(=O)CN(C)C1=O [PP1536] | 24.8 | – | – | NRAS/KRAS (ratio of KD value for GDP-bound NRAS wild-type protein to KD value for KRAS) ([1]; KD ratio class): A (a compound having 10 or more and less than 20 is denoted as A); HRAS/KRAS (ratio of KD value for GDP-bound HRAS wild-type protein to KD value for KRAS) ([2]; KD ratio class): B (a compound having 3 or more and less than 10 is denoted as B)
CC[C@H](C)[C@@H]1NC(=O)[C@H](CC2CC2)N(C)C(=O)C[C@@H](C(=O)N(C)C)N(C)C(=O)[C@H](C2CCCC2)N(C)C(=O)C2(CC(C)(C)C2)NC(=O)[C@@H]2C[C@H](C)CN2C(=O)[C@H](CCc2cc(F)c(C(F)(F)F)c(F)c2)NC(=O)CN(C)C(=O)[C@H](Cc2ccc(C(F)(F)F)cc2)N2CC/C=C\C[C@@H](C2=O)N(C)C(=O)CN(C)C1=O [PP1660] | 4.3 | A (a compound having 10 or more and less than 20 is denoted as A) | A (a compound having 10 or more and less than 20 is denoted as A) | –
CCC[C@H]1C(=O)N[C@@H]([C@@H](C)CC)C(=O)N(C)CC(=O)N(C)[C@H]2C/C=C\CCN(C2=O)[C@@H](Cc2ccc(C(F)(F)F)cc2)C(=O)N(C)CC(=O)N[C@@H](CCc2ccc(C(F)(F)F)c(OC)c2)C(=O)N2C[C@H](OCC)C[C@H]2C(=O)NC2(CC(C)(C)C2)C(=O)N(C)[C@@H](C2CCCC2)C(=O)N(C)[C@H](C(=O)N(C)CC)CC(=O)N1C [PP1676] | 5 | A (a compound having 10 or more and less than 20 is denoted as A) | A (a compound having 10 or more and less than 20 is denoted as A) | –
C#CC[C@H]1C(=O)N[C@@H]([C@@H](C)CC)C(=O)N(C)CC(=O)N(C)[C@H]2C/C=C\CCN(C2=O)[C@@H](Cc2ccc(C(F)(F)F)cc2)C(=O)N(C)CC(=O)N[C@@H](CCc2ccc(C(F)(F)F)c(OC)c2)C(=O)N2C[C@H](OCC)C[C@H]2C(=O)NC2(CC(C)(C)C2)C(=O)N(C)[C@@H](C2CCCC2)C(=O)N(C)[C@H](C(=O)N(C)C)CC(=O)N1C [PP1677] | 3.4 | A (a compound having 10 or more and less than 20 is denoted as A) | A (a compound having 10 or more and less than 20 is denoted as A) | –
CCO[C@@H]1C[C@H]2C(=O)NC3(CC(C)(C)C3)C(=O)N(C)[C@@H](C3CCCC3)C(=O)N(C)[C@H](C(=O)N(C)CC)CC(=O)N(C)[C@@H](CC3CC3)C(=O)N[C@@H]([C@@H](C)CC)C(=O)N(C)CC(=O)N(C)[C@H]3C/C=C\CCN(C3=O)[C@@H](Cc3ccc(C(F)(F)F)cc3)C(=O)N(C)CC(=O)N[C@@H](CCc3ccc(C(F)(F)F)c(OC)c3)C(=O)N2C1 [PP1678] | 5.6 | A (a compound having 10 or more and less than 20 is denoted as A) | B (a compound having 3 or more and less than 10 is denoted as B) | –
CCCN(C)C(=O)[C@@H]1CC(=O)N(C)[C@@H](COC)C(=O)N[C@@H]([C@@H](C)CC)C(=O)N(C)CC(=O)N(C)[C@H]2C/C=C\CCN(C2=O)[C@@H](Cc2ccc(C(F)(F)F)cc2)C(=O)N(C)CC(=O)N[C@@H](CCc2cc(F)c(C(F)(F)F)c(F)c2)C(=O)N2C[C@H](OCC)C[C@H]2C(=O)NC2(CCC2)C(=O)N(C)[C@@H](C2CCCC2)C(=O)N1C [PP1706] | 6.7 | A (a compound having 10 or more and less than 20 is denoted as A) | A (a compound having 10 or more and less than 20 is denoted as A) | –
CC[C@H](C)[C@@H]1NC(=O)[C@H](C2CC2)N(C)C(=O)C[C@@H](C(=O)N(C)C)N(C)C(=O)[C@H](C2CCCC2)N(C)C(=O)C2(CCCC2)N(C)C(=O)[C@@H]2CCCN2C(=O)[C@H](CCc2cc(F)c(C(F)(F)F)c(F)c2)NC(=O)CN(C)C(=O)[C@H](Cc2ccc(C)cc2)N2CC/C=C\C[C@@H](C2=O)N(C)C(=O)CN(C)C1=O [PP1809] | 22.4 | A (a compound having 10 or more and less than 20 is denoted as A) | B (a compound having 3 or more and less than 10 is denoted as B) | –
CC[C@H](C)[C@@H]1NC(=O)[C@H](CC)N(C)C(=O)C[C@@H](C(=O)N(C)CC)N(C)C(=O)[C@H](C2CCCC2)N(C)C(=O)C2(CC(C)(C)C2)NC(=O)[C@@H]2C[C@H](C)CN2C(=O)[C@H](CCc2ccc(C(F)(F)F)c(OC)c2)NC(=O)CN(C)C(=O)[C@H](Cc2ccc(C)cc2)N2CC/C=C\C[C@@H](C2=O)N(C)C(=O)CN(C)C1=O [PP1868] | 10.7 | A (a compound having 10 or more and less than 20 is denoted as A) | B (a compound having 3 or more and less than 10 is denoted as B) | –
CCO[C@@H]1C[C@H]2C(=O)NC3(CC(C)(C)C3)C(=O)N(C)[C@@H](C3CCCC3)C(=O)N(C)[C@H](C(=O)N(C)C)CC(=O)N(C)[C@@H](CC)C(=O)N[C@@H]([C@@H](C)CC)C(=O)N(C)CC(=O)N(C)[C@H]3C/C=C\CCN(C3=O)[C@@H](Cc3ccc(C)cc3)C(=O)N(C)CC(=O)N[C@@H](CCc3ccc(C(F)(F)F)c(Cl)c3)C(=O)N2C1 [PP1878] | 8.8 | A (a compound having 10 or more and less than 20 is denoted as A) | A (a compound having 10 or more and less than 20 is denoted as A) | –
CC[C@H](C)[C@@H]1NC(=O)[C@H](CC(C)C)N(C)C(=O)C[C@@H](C(=O)N(C)C)N(C)C(=O)[C@H](C2CCCC2)N(C)C(=O)C2(CC(C)(C)C2)NC(=O)[C@@H]2C[C@H](C)CN2C(=O)[C@H](CCc2ccc(C(F)(F)F)c(OC)c2)NC(=O)CN(C)C(=O)[C@H](Cc2ccc(C)cc2)N2CC/C=C\C[C@@H](C2=O)N(C)C(=O)CN(C)C1=O [PP1905] | 6.7 | A (a compound having 10 or more and less than 20 is denoted as A) | A (a compound having 10 or more and less than 20 is denoted as A) | –
